From patent US11524012B1, “Quinolone analogs and their salts, compositions, and method for their use” (Senhwa Biosciences, Inc., priority 2018, dated 2022) come the findings set out here.

Series [1] deals with DLD-1 BRCA2−/− (HD 105-007). Kind of series: Anti-proliferation assay 144 h (ATPlite). In kind it is cell-based. The settings on record: for Fold Sensitivity of BRCA2^-/- line: BRCA2^-/- line relative to DLD-1 Parental line; for Fold Sensitivity of BRCA2^-/- line / IC50: 144 h proliferation assay; for IC50: Homo sapiens, DLD-1, ATPlite, read-out: Relative IC50, DLD-1 BRCA2^-/-. On the procedure: (§1) The sensitivity of DLD-1 Parental and BRCA2−/− isogenic cell lines Compound I and Compounds 1 and 7-10 were evaluated in 144 h proliferations assays. Cells were seeded into 384-well plates in McCoy's 5A medium supplemented with 10% FBS at the seeding densities indicated below and allowed to adhere overnight prior to addition of compound or vehicle control. Compounds were weighed out and stock solutions in DMSO were made immediately prior to treatment of cells. Serial dilutions of compounds were prepared in DMSO and diluted in media before being added to cells in quadruplicate to give the final concentrations indicated on graphs (10 μM top concentration, 9-point semi-log dilution series, 0.2% DMSO final concentration for all treatments). Cells were incubated with compounds for 144 h at 37° C., 5% C02 in a humidified atmosphere. At the assay endpoint, ATPlite (Perkin Elmer) reagent was added at a volume equal to the volume of cell culture medium already present in each well and the plates processed as per the manufacturer's instructions. Media only background values were subtract and ted and the data was analyzed using a 4-parameter logistic equation in GraphPad Prism. DLD-1 Parental (HD PAR-008) DLD-1 BRCA2−/− (HD 105-007) used.
(In general: Cellular ATP, detected with luciferase, serves as a proxy for viable cell number.)

The subject of series [2] is DLD-1 Parental (HD PAR-008). Kind of series: Anti-proliferation assay 144 h (ATPlite). It is filed as cell-based. The settings on record: Homo sapiens, 144 h proliferation assay, * = value should be considered as approximate, read-out: Relative IC50, DLD-1 Parental. On the procedure: as §1
A short description of series [3]: Stability of stock solutions and of spiked human plasma (LC/MS/MS method validation). It is filed as physicochemical. The settings on record: refrigeration (2° C. to 8° C.). On the procedure:
A reference standard stock solution of Compound I was prepared by weighing the reference standard and dissolving it in a solution of 50:50:0.1 (v/v) mixture of ACN:deionized water:formic acid, followed by vortex-mixing and sonication. This stock solution was used for preparation of the calibration standards. Another stock solution of Compound I was prepared following the same procedure and was used for preparation of the QC samples. Both stock solutions were prepared previously and stored at refrigeration (2° C. to 8° C.) prior to use on the day of assay. […] Both solutions were used within the established stability timeframe.
The internal standard stock solution was previously prepared by weighing Compound A (2-(4-Methyl-piperazin-1-yl)-5-oxo-5H-7-thia-1,11b-diaza-benzo[c]fluorene-6-carboxylic acid (5-methyl-pyrazin-2-ylmethyl)-amide) and dissolving it in a solution of 50:50:0.1 (v/v) mixture of ACN:deionized water:formic acid. This stock solution was stored at refrigeration (2° C. to 8° C.) prior to use. […] This solution was used within the established stability timeframe. On the day of assay, this solution was further diluted with a solution of 50:50:0.1 (v/v) mixture of ACN:deionized water:formic acid into a solution for spiking.
This assay method was based on a nominal quantitation range of 5.00 ng/mL to 5000 ng/mL. Validation results met their acceptance criteria for the assessments of calibration range, assay accuracy and precision, hemolysis matrix effects, lipidemic matrix effects, selectivity and specificity, dilution integrity, and assay ruggedness with respect to changing analysts and instrument, and over the run time anticipated for a prospective test sample run. Chromatographic carryover was not observed. A 6-minute assay run time was validated. […] (−63° C. to −77° C.) and following 4 cycles of freeze/thaw.

Take `CN1CCCN(c2ccc3c(=O)c(C(N)=O)c4sc5ccccc5n4c3n2)CC1` [Compound 1, 2-(4-methyl-1,4-diazepan-1-yl)-5-oxo-5H-benzo[4,5]thiazolo[3,2-a][1,8]naphthyridine-6-carboxamide]: in series [1] (144 h), the “sensitivity of the BRCA2 null line relative to the parental line (in words)” value is listed as “extremely sensitive”. In addition, in series [1], the “Fold Sensitivity of BRCA2^-/- line” value came to 400 and the IC50 came to 0.0047 µM. Besides, the IC50 in series [2] is 1.88 µM.
Consider `Cc1cnc(CNC(=O)c2c(=O)c3ccc(N4CCCNCC4)nc3n3c2sc2ccccc23)cn1` [Compound 7, 2-(1,4-diazepan-1-yl)-N-((5-methylpyrazin-2-yl)methyl)-5-oxo-5H-benzo[4,5]thiazolo[3,2-a][1,8]naphthyridine-6-carboxamide], for which the “Fold Sensitivity of BRCA2^-/- line” value in series [1] was 21. Moreover, the IC50 in series [1] was 0.56 µM; in series [2], roughly 12 µM.
The corresponding values for `CN1CCCN(c2ccc3c(=O)c(C(=O)NCCCN4CCCCCC4=O)c4sc5ccccc5n4c3n2)CC1` [Compound 8, 2-(4-methyl-1,4-diazepan-1-yl)-N-(3-(2-oxoazepan-1-yl)propyl)-5-oxo-5H-benzo[4,5]thiazolo[3,2-a][1,8]naphthyridine-6-carboxamide] are 74, 0.0072 µM and 0.53 µM.
The corresponding values for `Cc1cnc(CNC(=O)c2c(=O)c3ccc(N4CCC[N+](C)([O-])CC4)nc3n3c2sc2ccccc23)cn1` (centres unmarked) [Compound 9, 2-(4-methyl-4-oxidodiazepan-4-ium-1-yl)-N-((5-methylpyrazin-2-yl)methyl)-5-oxo-5H-benzo[4,5]thiazolo[3,2-a][1,8]naphthyridine-6-carboxamide] are 5.5, 1.59 µM and roughly 8.78 µM.
The corresponding values for `Cc1cnc(C(=O)NC(=O)c2c(=O)c3ccc(N4CCCN(C)CC4)nc3n3c2sc2ccccc23)cn1` [Compound 10, 2-(4-methyl-1,4-diazepan-1-yl)-N-((5-methylpyrazin-2-yl)carbonyl)-5-oxo-5H-benzo[4,5]thiazolo[3,2-a][1,8]naphthyridine-6-carboxamide] are 2.5, 0.62 µM and 1.58 µM.
Turning to `Cc1cnc(CNC(=O)c2c(=O)c3ccc(N4CCN(C)CC4)nc3n3c2sc2ccccc23)cn1` [Compound A, 2-(4-Methyl-piperazin-1-yl)-5-oxo-5H-7-thia-1,11b-diaza-benzo[c]fluorene-6-carboxylic acid (5-methyl-pyrazin-2-ylmethyl)-amide, reference compound], in series [3], the “stock solution stable (50:50:0.1 ACN:deionized water:formic acid)” value was determined as 384 days.
